Where “and” joins values, the source holds several entries; their conditions need not be identical. Equal entries are not always repeated. Inconclusive results and toxic doses are left out. Rule as the data show it: active = T/C of 150% or more; inactive = T/C below 125%.
Test system: L1210 leukemia ip in BDF1 mice, survival T/C
Test: NCI In Vivo Anticancer Drug Screen. Data for tumor model L1210 Leukemia (intraperitoneal) in B6D2F1 (BDF1) mice
Conditions: endpoint: mean survival time, higher = longer survival
In short: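 Read-out is survival time, reported as the treated-group measurement over the vehicle-control measurement.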

[1] = dose: 100.0 mg/kg/injection, schedule: Q01DX001 (ip), vehicle: carboxymethylcellulose (CMC)
[2] = dose: 200.0 mg/kg/injection, schedule: Q01DX001 (ip), vehicle: carboxymethylcellulose (CMC)
[3] = dose: 400.0 mg/kg/injection, schedule: Q01DX001 (ip), vehicle: carboxymethylcellulose (CMC)
[4] = dose: 25.0 mg/kg/injection, schedule: Q01DX009 (ip), vehicle: saline
[5] = dose: 100.0 mg/kg/injection, schedule: Q01DX009 (ip), vehicle: saline
[6] = dose: 100.0 mg/kg/injection, schedule: Q04DX003 (ip), vehicle: saline
[7] = dose: 100.0 mg/kg/injection, schedule: Q04DX003 (ip), vehicle: acetone
[8] = dose: 200.0 mg/kg/injection, schedule: Q04DX003 (ip), vehicle: acetone
[9] = dose: 400.0 mg/kg/injection, schedule: Q04DX003 (ip), vehicle: acetone
[10] = dose: 100.0 mg/kg/injection, schedule: Q01DX001 (ip), vehicle: saline
[11] = dose: 200.0 mg/kg/injection, schedule: Q01DX001 (ip), vehicle: saline
[12] = dose: 400.0 mg/kg/injection, schedule: Q01DX001 (ip), vehicle: saline
[13] = dose: 100.0 mg/kg/injection, schedule: Q04DX003 (ip), vehicle: saline with Tween-80
[14] = dose: 200.0 mg/kg/injection, schedule: Q04DX003 (ip), vehicle: saline with Tween-80
[15] = dose: 400.0 mg/kg/injection, schedule: Q04DX003 (ip), vehicle: saline with Tween-80
[16] = dose: 100.0 mg/kg/injection, schedule: Q01DX009 (ip), vehicle: Klucel (hydroxypropylcellulose) (HPC)
[17] = dose: 100.0 mg/kg/injection, schedule: Q04DX003 (ip), vehicle: Klucel (hydroxypropylcellulose) (HPC)
[18] = dose: 200.0 mg/kg/injection, schedule: Q04DX003 (ip), vehicle: Klucel (hydroxypropylcellulose) (HPC)
[19] = dose: 400.0 mg/kg/injection, schedule: Q04DX003 (ip), vehicle: Klucel (hydroxypropylcellulose) (HPC)

Measured: T/C

O=c1c(-c2ccccc2)c(-c2ccccc2)n2n1C1C=CC2C1 (stereo unspecified)
inactive: [1] 96 % of control | [2] 96 % of control | [3] 96 % of control

CC(C)N(CCCOC(=O)c1ccc(N)cc1)C(C)C
inactive: [4] 95 % of control | dose: 50.0 mg/kg/injection, schedule: Q01DX009 (ip), vehicle: saline 109 % of control | [5] 106 % of control | [6] 105 % of control

CC1OCC(C)C(C)(C)O1 (stereo unspecified)
inactive: dose: 50.0 mg/kg/injection, schedule: Q01DX009 (ip), vehicle: acetone 100 % of control | dose: 100.0 mg/kg/injection, schedule: Q01DX009 (ip), vehicle: acetone 90 % of control | [7] 112 % of control | dose: 200.0 mg/kg/injection, schedule: Q01DX009 (ip), vehicle: acetone 89 % of control | [8] 108 % of control | [9] 103 % of control

c1ccc(C(=C2CC34CCCC23CC4)c2ccccc2)cc1 (stereo unspecified)
inactive: dose: 37.5 mg/kg/injection, schedule: Q04DX002 (ip), vehicle: saline with Tween-80 95 % of control | dose: 75.0 mg/kg/injection, schedule: Q04DX002 (ip), vehicle: saline with Tween-80 98 % of control | dose: 150.0 mg/kg/injection, schedule: Q04DX002 (ip), vehicle: saline with Tween-80 91 % of control | dose: 300.0 mg/kg/injection, schedule: Q04DX002 (ip), vehicle: saline with Tween-80 91 % of control

O=C(OC1COC(OC(=O)c2ccc([N+](=O)[O-])cc2)C(OC(=O)c2ccc([N+](=O)[O-])cc2)C1OC(=O)c1ccc([N+](=O)[O-])cc1)c1ccc([N+](=O)[O-])cc1 (stereo unspecified)
inactive: [10] 93 % of control | [11] 96 % of control | [12] 96 % of control

C[n+]1ccc(/C=C/c2c[nH]c3ccccc23)cc1
inactive: dose: 6.25 mg/kg/injection, schedule: Q04DX003 (ip), vehicle: saline with Tween-80 92 % of control | dose: 12.5 mg/kg/injection, schedule: Q04DX003 (ip), vehicle: saline with Tween-80 104 % of control | dose: 25.0 mg/kg/injection, schedule: Q04DX003 (ip), vehicle: saline with Tween-80 97 % of control

CC(C)=NSc1ccccc1
inactive: dose: 50.0 mg/kg/injection, schedule: Q01DX001 (ip), vehicle: Klucel (hydroxypropylcellulose) (HPC) 99 % of control | dose: 100.0 mg/kg/injection, schedule: Q01DX001 (ip), vehicle: Klucel (hydroxypropylcellulose) (HPC) 97 % of control | dose: 200.0 mg/kg/injection, schedule: Q01DX001 (ip), vehicle: Klucel (hydroxypropylcellulose) (HPC) 97 % of control

COC(=O)C1C2C=CC(C2)C1C(=O)OC (stereo unspecified)
inactive: [13] 99 % of control | [14] 105 % of control | [15] 92 % of control

OC(CCl)C(O)C(O)C(O)CCl (stereo unspecified)
inactive: dose: 44.0 mg/kg/injection, schedule: Q01DX001 (ip), vehicle: saline 103 % of control | dose: 66.0 mg/kg/injection, schedule: Q01DX001 (ip), vehicle: saline 103 % of control | dose: 100.0 mg/kg/injection, schedule: Q01DX001 (ip), vehicle: saline with Tween-80 95 % of control | [10] 103 % of control | dose: 150.0 mg/kg/injection, schedule: Q01DX001 (ip), vehicle: saline 96 % of control | dose: 200.0 mg/kg/injection, schedule: Q01DX001 (ip), vehicle: saline with Tween-80 92 % of control | [11] 101 % of control | dose: 400.0 mg/kg/injection, schedule: Q01DX001 (ip), vehicle: saline with Tween-80 89 % of control | [12] 97 % of control

Cn1cnc2c(=O)[nH]nnc21
inactive: dose: 100.0 mg/kg/injection, schedule: Q01DX005 (ip), vehicle: saline 96 % of control | dose: 200.0 mg/kg/injection, schedule: Q01DX005 (ip), vehicle: saline 112 % of control

C=CCC1CC2(C)C(CCC3C2CCC2(C)C(OC(C)=O)CCC32)CC1=O (stereo unspecified)
inactive: dose: 10.0 mg/kg/injection, schedule: Q01DX009 (ip), vehicle: gum acacia 89 % of control | dose: 200.0 mg/kg/injection, schedule: Q01DX009 (ip), vehicle: gum acacia 88 % of control

Nc1nc(N)c(CCCCc2ccccc2)c(N)n1
inactive: dose: 50.0 mg/kg/injection, schedule: Q01DX009 (ip), vehicle: Klucel (hydroxypropylcellulose) (HPC) 87 % of control | dose: 50.0 mg/kg/injection, schedule: Q01DX Z (ip), vehicle: carboxymethylcellulose (CMC) 95 % of control | [16] 95 % of control

BrC1(Br)C2CCCCC21 (stereo unspecified)
inactive: [7] 90 % of control | [8] 98 % of control and 90 % of control

CCOC(=O)C(C(C)=O)C(c1ccc([N+](=O)[O-])cc1)C(C(C)=O)C(=O)OCC (stereo unspecified)
inactive: dose: 3.12 mg/kg/injection, schedule: Q01DX009 (ip), vehicle: saline 86 % of control | dose: 6.25 mg/kg/injection, schedule: Q01DX009 (ip), vehicle: saline 88 % of control | dose: 12.5 mg/kg/injection, schedule: Q01DX009 (ip), vehicle: saline 89 % of control | [4] 86 % of control

CC(=O)OCOC(COC(C)=O)C1OCOC(COC(C)=O)C1OCOC(C)=O (stereo unspecified)
inactive: dose: 100.0 mg/kg/injection, schedule: Q04DX002 (ip), vehicle: saline with Tween-80 100 % of control | dose: 200.0 mg/kg/injection, schedule: Q04DX002 (ip), vehicle: saline with Tween-80 100 % of control | dose: 400.0 mg/kg/injection, schedule: Q04DX002 (ip), vehicle: saline with Tween-80 100 % of control

CC(=O)Oc1ccccc1OC(=S)N(C)C
inactive: [13] 106 % of control | [14] 111 % of control | [15] 105 % of control

CCCCCCCCCCCCCCCCNC(=O)C[N+](C)(C)Cc1ccccc1
inactive: dose: 2.5 mg/kg/injection, schedule: Q01DX009 (ip), vehicle: saline with Tween-80 101 % of control | dose: 5.0 mg/kg/injection, schedule: Q01DX009 (ip), vehicle: saline with Tween-80 98 % of control

Brc1cc(Br)c2c(c1)-c1ccccc1C2
inactive: [1] 96 % of control | [2] 113 % of control | [3] 96 % of control

Fc1ccc(-c2n[nH]c3c2CCCc2ccccc2-3)cc1
inactive: [13] 113 % of control | [14] 111 % of control | [15] 102 % of control

O=C(COc1ccc(Cl)c(Cl)c1)NCc1ccc[n+](Cc2ccc(S(=O)(=O)F)c(Cl)c2)c1
inactive: dose: 25.0 mg/kg/injection, schedule: Q04DX003 (ip), vehicle: saline 106 % of control | dose: 50.0 mg/kg/injection, schedule: Q04DX003 (ip), vehicle: saline 106 % of control | [6] 92 % of control and 98 % of control

N#CC1(NC(=O)CCl)CCCCC1
inactive: dose: 100.0 mg/kg/injection, schedule: Q01DX001 (ip), vehicle: other 96 % of control | dose: 200.0 mg/kg/injection, schedule: Q01DX001 (ip), vehicle: other 91 % of control

COC(=O)CCC(NC(=O)C1CCN(C(=O)OCc2ccccc2)CC1)C(=O)OC (stereo unspecified)
inactive: [10] 99 % of control | [5] 103 % of control | [7] 95 % of control | [11] 100 % of control | dose: 200.0 mg/kg/injection, schedule: Q01DX009 (ip), vehicle: saline 102 % of control | [8] 98 % of control | [12] 94 % of control | dose: 400.0 mg/kg/injection, schedule: Q01DX009 (ip), vehicle: saline 103 % of control | [9] 98 % of control

Cc1c(Cl)cccc1NC(=O)COc1ccc(Cl)cc1
inactive: [16] 110 % of control | [17] 93 % of control | dose: 200.0 mg/kg/injection, schedule: Q01DX009 (ip), vehicle: Klucel (hydroxypropylcellulose) (HPC) 94 % of control | [18] 91 % of control | dose: 400.0 mg/kg/injection, schedule: Q01DX009 (ip), vehicle: Klucel (hydroxypropylcellulose) (HPC) 95 % of control | [19] 91 % of control

CC(CO)(C(=O)O)c1ccccc1 (stereo unspecified)
inactive: dose: 55.0 mg/kg/injection, schedule: Q01DX Z (ip), vehicle: saline 103 % of control | dose: 83.0 mg/kg/injection, schedule: Q01DX Z (ip), vehicle: saline 96 % of control | dose: 125.0 mg/kg/injection, schedule: Q01DX Z (ip), vehicle: saline 94 % of control

Cc1cc(O)c(C(C)C)cc1NC(=O)C(Cl)Cl
inactive: [17] 98 % of control | [18] 101 % of control | [19] 107 % of control

Reference: PubChem BioAssay AID248 (DTP/NCI, 2004)
